# Assays:
# [1] = Toxicity in C57BL/6J mouse implanted with mouse MC38 cells assessed as change in HGB count at 40 to 160 mg/kg, IG qd for 7 days; type: organism-based; settings: in vivo, po, 168 h, dose 40-160 mg/kg, time 7 day
# [2] = Toxicity in C57BL/6J mouse implanted with mouse MC38 cells assessed as change in serum AST level at 5 to 20 mg/kg, ip qd for 13 days; type: organism-based; settings: in vivo, 312 h, dose 5-20 mg/kg, time 13 day
# [3] = Tmax in Sprague-Dawley rat at 10 mg/kg, ip measured for 24 hrs by LC-MS/MS analysis; type: ADME, organism-based; settings: in vivo
# MC-38 [4] = experiment: Antitumor activity against mouse MC38 cells implanted in C57BL/6J mouse at 5 to 20 mg/kg, ip qd for 13 days relative to control; type: functional; settings: dose 5-20 mg/kg, time 13 day
# [5] = Toxicity in C57BL/6J mouse implanted with mouse MC38 cells assessed as change in brain index at 5 to 20 mg/kg, ip qd for 13 days; type: organism-based; settings: in vivo, 312 h, dose 5-20 mg/kg, time 13 day
# [6] = target: Programmed cell death protein 1/Programmed cell death 1 ligand 1 (Homo sapiens, UniProt Q9NZQ7); experiment: Inhibition of interaction of PD-1/PD-L1 (unknown origin) by HTRF analysis; type: protein-complex assay
# Sequence of Programmed cell death protein 1/Programmed cell death 1 ligand 1 (Q15116 whole entry): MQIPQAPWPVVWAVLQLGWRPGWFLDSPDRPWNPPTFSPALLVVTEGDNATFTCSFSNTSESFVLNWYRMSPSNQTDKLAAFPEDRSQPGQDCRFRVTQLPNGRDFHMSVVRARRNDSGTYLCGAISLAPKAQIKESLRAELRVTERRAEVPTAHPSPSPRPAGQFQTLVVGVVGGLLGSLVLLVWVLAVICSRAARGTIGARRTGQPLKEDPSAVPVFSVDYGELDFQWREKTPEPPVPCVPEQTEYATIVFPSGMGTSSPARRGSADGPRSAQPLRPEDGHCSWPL
# Sequence of Programmed cell death protein 1/Programmed cell death 1 ligand 1 (Q9NZQ7 whole entry): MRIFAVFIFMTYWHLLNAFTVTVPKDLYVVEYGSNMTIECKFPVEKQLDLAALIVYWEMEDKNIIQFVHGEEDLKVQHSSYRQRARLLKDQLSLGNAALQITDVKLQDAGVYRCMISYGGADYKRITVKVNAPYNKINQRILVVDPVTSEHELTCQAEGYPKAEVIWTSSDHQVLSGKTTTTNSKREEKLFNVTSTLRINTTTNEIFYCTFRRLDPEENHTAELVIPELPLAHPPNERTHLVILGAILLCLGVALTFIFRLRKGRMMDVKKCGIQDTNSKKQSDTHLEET
# [7] = AUC (0 to infinity) in Sprague-Dawley rat at 20 mg/kg, po measured for 24 hrs by LC-MS/MS analysis; type: ADME, organism-based; settings: in vivo
# [8] = Drug uptake in mouse MC38 cells incubated for 48 hrs by LC-MS/MS analysis; type: ADME, cell-based; settings: mc-38, 48 h, dose 1-10 µM
# [9] = Toxicity in C57BL/6J mouse implanted with mouse MC38 cells assessed as change in HCT count at 40 to 160 mg/kg, IG qd for 7 days; type: organism-based; settings: in vivo, po, 168 h, dose 40-160 mg/kg, time 7 day
# [10] = Oral bioavailability in Sprague-Dawley rat at 20 mg/kg measured for 24 hrs by LC-MS/MS analysis; type: ADME, organism-based; settings: in vivo
# [11] = AUC (0 to infinity) in Sprague-Dawley rat at 1 mg/kg, iv measured for 24 hrs by LC-MS/MS analysis; type: ADME, organism-based; settings: in vivo
# [12] = AUC (0 to 24 hrs) in Sprague-Dawley rat at 10 mg/kg, ip measured for 24 hrs by LC-MS/MS analysis; type: ADME, organism-based; settings: in vivo
# [13] = Toxicity in C57BL/6J mouse implanted with mouse MC38 cells assessed as spleen weight ratio at 40 to 160 mg/kg, IG qd for 7 days; type: organism-based; settings: in vivo, po, 168 h, dose 40-160 mg/kg, time 7 day
# [14] = AUC (0 to 24 hrs) in Sprague-Dawley rat at 1 mg/kg, iv measured for 24 hrs by LC-MS/MS analysis; type: ADME, organism-based; settings: in vivo
# [15] = Stability in human plasma at 1 mM measured up to 7 hrs by HPLC analysis; type: ADME, cell-free; settings: 1000 µM
# [16] = Clearance in Sprague-Dawley rat at 20 mg/kg, po measured for 24 hrs by LC-MS/MS analysis; type: ADME, organism-based; settings: in vivo
# [17] = Toxicity in C57BL/6J mouse implanted with mouse MC38 cells assessed as animal mortality at 5 to 20 mg/kg, ip qd for 13 days; type: organism-based; settings: in vivo, 312 h, dose 5-20 mg/kg, time 13 day
# [18] = Toxicity in C57BL/6J mouse implanted with mouse MC38 cells assessed as change in MPV count at 40 to 160 mg/kg, IG qd for 7 days; type: organism-based; settings: in vivo, po, 168 h, dose 40-160 mg/kg, time 7 day
# [19] = Toxicity in C57BL/6J mouse implanted with mouse MC38 cells assessed as change in heart index at 5 to 20 mg/kg, ip qd for 13 days; type: organism-based; settings: in vivo, 312 h, dose 5-20 mg/kg, time 13 day
# [20] = Toxicity in C57BL/6J mouse implanted with mouse MC38 cells assessed as change in spleen index at 5 to 20 mg/kg, ip qd for 13 days; type: organism-based; settings: in vivo, 312 h, dose 5-20 mg/kg, time 13 day
# [21] = Toxicity in C57BL/6J mouse implanted with mouse MC38 cells assessed as change in AST level at 40 to 160 mg/kg, IG qd for 7 days; type: organism-based; settings: in vivo, po, 168 h, dose 40-160 mg/kg, time 7 day
# [22] = Half life in Sprague-Dawley rat at 20 mg/kg, po measured for 24 hrs by LC-MS/MS analysis; type: ADME, organism-based; settings: in vivo
# [23] = Cytotoxicity against mouse MC38 cells measured after 48 hrs by MTT assay; type: toxicity, cell-based, MC-38
# [24] = Toxicity in C57BL/6J mouse implanted with mouse MC38 cells assessed as change in serum urea level at 5 to 20 mg/kg, ip qd for 13 days; type: organism-based; settings: in vivo, 312 h, dose 5-20 mg/kg, time 13 day
# MC-38 [25] = experiment: Antitumor activity against mouse MC38 cells implanted in C57BL/6J mouse assessed as tumor growth inhibition administered intragastrically once daily for 7 days; type: functional, cell-based; settings: dose 40-160 mg/kg, route ig, time 7.0 day
# [26] = Toxicity in C57BL/6J mouse implanted with mouse MC38 cells assessed as body weight change at 40 to 160 mg/kg, IG qd for 7 days; type: organism-based; settings: in vivo, po, 168 h, dose 40-160 mg/kg, time 7 day
# [27] = Toxicity in C57BL/6J mouse implanted with mouse MC38 cells assessed as lung weight ratio at 40 to 160 mg/kg, IG qd for 7 days; type: organism-based; settings: in vivo, po, 168 h, dose 40-160 mg/kg, time 7 day
# [28] = Tmax in Sprague-Dawley rat at 20 mg/kg, po measured for 24 hrs by LC-MS/MS analysis; type: ADME, organism-based; settings: in vivo
# [29] = Cytotoxicity against human PBMC cells assessed as inhibition of cell viability by CCK8 assay; type: toxicity, cell-based
# [30] = Clearance in Sprague-Dawley rat at 10 mg/kg, ip measured for 24 hrs by LC-MS/MS analysis; type: ADME, organism-based; settings: in vivo
# [31] = Half life in Sprague-Dawley rat at 1 mg/kg, iv measured for 24 hrs by LC-MS/MS analysis; type: ADME, organism-based; settings: in vivo
# [32] = Cytotoxicity against human L02 cells measured after 48 hrs by MTT assay; type: toxicity, cell-based
# [33] = Toxicity in C57BL/6J mouse implanted with mouse MC38 cells assessed as drug tolerance at 5 to 20 mg/kg, ip qd for 13 days; type: organism-based; settings: in vivo, 312 h, dose 5-20 mg/kg, time 13 day
# Mus musculus = experiment: Restoration of immune function in C57BL/6J mouse implanted with mouse MC38 cells assessed as increase in serum IL-6 level administered intraperitoneally once daily for 13 days by ELISA; type: functional, organism-based; settings: dose 5-20 mg/kg, route ip, time 13.0 day
# [34] = Toxicity in C57BL/6J mouse implanted with mouse MC38 cells assessed as injury in liver at 5 to 20 mg/kg, ip qd for 13 days by H and E staining based analysis; type: organism-based; settings: in vivo, 312 h, dose 5-20 mg/kg, time 13 day
# [35] = Cmax in Sprague-Dawley rat at 20 mg/kg, po measured for 24 hrs by LC-MS/MS analysis; type: ADME, organism-based; settings: in vivo
# [36] = Toxicity in C57BL/6J mouse implanted with mouse MC38 cells assessed as injury in spleen at 5 to 20 mg/kg, ip qd for 13 days by H and E staining based analysis; type: organism-based; settings: in vivo, 312 h, dose 5-20 mg/kg, time 13 day
# [37] = Toxicity in C57BL/6J mouse implanted with mouse MC38 cells assessed as change in CREA-SOX level at 40 to 160 mg/kg, IG qd for 7 days; type: organism-based; settings: in vivo, po, 168 h, dose 40-160 mg/kg, time 7 day
# [38] = Toxicity in C57BL/6J mouse implanted with mouse MC38 cells assessed as change in kidney index at 5 to 20 mg/kg, ip qd for 13 days; type: organism-based; settings: in vivo, 312 h, dose 5-20 mg/kg, time 13 day
# [39] = Toxicity in C57BL/6J mouse implanted with mouse MC38 cells assessed as animal mortality at 40 to 160 mg/kg, IG qd for 7 days; type: organism-based; settings: in vivo, po, 168 h, dose 40-160 mg/kg, time 7 day
structure (smiles),measurement,setting,value
C[C@H](N)C(=O)N1Cc2ccc(-c3cccc(-c4ccc5c(c4)OCCO5)c3Cl)cc2C1.Cl,Activity,[1],Non-toxic
same,Activity,[2],Non-toxic
same,Tmax,[3],0.42 h
same,TGI,MC-38 [4],52.8%
same,Activity,[5],Non-toxic
same,IC50,[6],0.0048 µM
same,AUC(0-inf),[7],644 ng·h/mL
same,Drug uptake,[8],Dose-dependent-effect
same,Activity,[9],Non-toxic
same,bioavailability,[10],21.4%
same,AUC(0-inf),[11],191 ng·h/mL
same,AUC(0-t) at 24 h,[12],1010 ng·h/mL
same,Activity,[13],Non-toxic
same,AUC(0-t) at 24 h,[14],180 ng·h/mL
same,Stability,[15],Stable
same,CL/F,[16],401 mL/min/kg
same,Activity,[17],Non-toxic
same,Activity,[18],Non-toxic
same,Activity,[19],Non-toxic
same,Activity,[20],Non-toxic
same,Activity,[21],Non-toxic
same,half-life,[22],3.58 h
same,IC50 at 48 h,[23],12 µM
same,Activity,[24],Non-toxic
same,inhibition,MC-38 [25],Dose-dependent-effect
same,Activity,[26],Non-toxic
same,Activity,[27],Non-toxic
same,Tmax,[28],2.5 h
same,IC50,[29],> 5 µM
same,CL/F,[30],103 mL/min/kg
same,half-life,[31],1.61 h
same,IC50 at 48 h,[32],> 10 µM
same,Activity,[33],Non-toxic
same,Activity,Mus musculus,Dose-dependent-effect
same,Activity,[34],Non-toxic
same,Cmax,[35],151 ng/mL
same,Activity,[36],Non-toxic
same,Activity,[37],Non-toxic
same,Activity,[38],Non-toxic
same,Activity,[39],Non-toxic

# Reference: ChEMBL document CHEMBL6109137, “Design, Synthesis, Evaluation, and SAR of 5-Phenylisoindoline Derivatives, a Potent Class of Small-Molecule Inhibitors Targeting the Programmed Cell Death-1/Programmed Cell Death-Ligand 1 (PD-1/PD-L1) Interaction” (J Med Chem, 2025)
